According to paper PMC9096233, “Identification of an Au(I) N-Heterocyclic Carbene Compound as a Bactericidal Agent Against Pseudomonas aeruginosa” (Frontiers in Chemistry, 2022):
In brackets after ≈: the same amount, converted by molar mass. Where two headings read alike, the source gives them in different places.

What was measured:
[1] = tested on: lung carcinoma A549 cell; assay: MTT cytotoxicity assay; assay type: cell-based, Human; conditions: 48 h
Procedure: The cytotoxicity of gold compounds to mammalian cells was measured using the 3-(4, 5-dimethylthiazol-2-yl)-2, 5-diphenyltetrazolium bromide (MTT) assay. Human hepatocyte L-O2 cell, and lung carcinoma A549 cell were cultured in Corning 96 well microplates (10^4 cells per well) at 37°C for 18 h. Then the cells were incubated with gradient concentrations of gold compounds at 37°C for another 48 h. After the treatment, cell culture media were removed and the plates were wash with PBS for three times. And 90 μL fresh media and 10 μL 5 mg/ml MTT solution were added to each well and further incubated at 37°C for 4 h. Subsequently, the media were removed from the wells and 150 μL DMSO was added into each well to dissolve the formazan crystals. The absorbance at 490 nm of each well was measured with a micro-plate reader. The experiments were carried out in triplicates.

[2] = tested on: rhamnolipid; assay: Rhamnolipid measurement (anthrone); assay type: cell-based, Pseudomonas aeruginosa; conditions: 15 μM
Procedure: To quantify the secreted virulence factors, overnight P. aeruginosa PAO1 was diluted in fresh M9 medium and cultured to a final OD600 value of 0.15. Then Au1 or auranofin were added into culture with indicated concentrations. After 24 h incubation at 37°C, the bacterial supernatants were collected by centrifugation at 4,000 g for 10 min at 4°C and filtered using a 0.22 μm syringe filter (Millipore). The secreted virulence factors in the supernatant were quantified by the methods described below.
For rhamnolipid measurement, rhamnolipid was extracted from the supernatant with a mixture of chloroform and methanol (v:v = 2:1). The organic solvent phase was then evaporated to dryness and 100 μL methanol was added to dissolve the extracted rhamnolipid. Then 200 μL of pre-cooled anthrone solution (dissolving 2 g of anthrone in 1 L of concentrated H2SO4) was added into 20 μL extracted rhamnolipid sample and heat at 80°C for 30min. The rhamnolipid concentration was determined by measurement the absorbance at 630 nm.

[3] = tested on: P. aeruginosa; assay: Bacterial growth curves; assay type: cell-based, Pseudomonas aeruginosa; conditions: 25 μM
Procedure: (§1) Pseudomonas aeruginosa strain PAO1 (P. aeruginosa) was grown in M9 minimal medium (1.0 g/L NH4Cl, 0.5 g/L NaCl, 6.0 g/L Na2HPO4, 3.0 g/L KH2PO4) supplemented with 1.0 mM MgSO4, 1.0 mM ZnSO4, 0.2 mM CaCl2, 0.4% (w/v) glucose and 0.2% (w/v) casein hydrolysate. Gram-negative Escherichia coli strain K-12 (E. coli) and Burkholderia cepacia J2315 (B. cepacia) were cultured in Luria-Bertani (LB) medium (5 g/L yeast extract, 10 g/L tryptone, 10 g/L sodium chloride). The Gram-positive Staphylococcus aureus strain Newman (S. aureus) was grown in Tryptic Soy Broth (TSB) medium (17 g/L Tryptone, 3 g/L Phytone, 5 g/L sodium chloride, 2.5 g/L dipotassium phosphate and glucose 2.5 g/L).

[4] = tested on: P. aeruginosa; assay: Bacterial membrane permeability, propidium iodide flow cytometry; assay type: cell-based, Pseudomonas aeruginosa; conditions: 30 min, PI staining
Procedure: Overnight P. aeruginosa culture was diluted 1:100 with fresh M9 medium and grown to early-mid exponential phase (OD600 = 0.4–0.6). […] Then the bacteria were incubated with propidium iodide (PI), a dye that is excluded from cells with impermeable membrane. The CytoFLEX flow cytometry (Beckman Coulter) was used to measure the bacterial fluorescent intensities and the data was analyzed using CytExpert 2.4 software. For the time-course detection of the bacterial permeability induced by Au1 or auranofin, P. aeruginosa in early-mid exponential phase (OD600 = 0.2) was incubated with PI dye on a 96-well plate. Au1 or auranofin was added to a final concentration of 50 μM. The fluorescence signal (561 nm excitation, 590 nm emission) and OD600 value were recorded on Cytation5 microplate reader. Each experiment was performed in triplicates.

[5] = tested on: P. aeruginosa PAO1; assay: Mouse skin wound infection model; assay type: in vivo
Procedure: Six-week-old female BALB/c mice were used for animal experiments to evaluate the healing effect of infected wounds in vivo. Briefly, mouse backs were cut to generate a circular wound (diameter 0.6 cm) with a hole punch and the wound was infiltrated using a medical cotton swab with P. aureginosa (overnight culture, OD600 = 0.3). The mice were randomly divided into three groups, including PBS, auranofin, and Au-1 groups (n = 5 in each group). The drugs were dissolved in DMSO and diluted with glycerol to a final concentration of 50 μM. After the bacterial fluid was dry, about 20 μL of the drug was added to the wound. Body weights and wound photography was recorded on days 0, 1, 3, 5, and 8. And on the 8th day, the mice were euthanized by chloral hydrate, the infectious tissues in all groups were collected and cultured into the LB plate for colony counting. The skin tissues were also fixed by paraformaldehyde solution (4%) for H&E, Gram, and Masson’s trichrome staining.
The above results promoted us to further investigate whether the Au1 compound was also efficacious in an in vivo animal infection model. To this end, we used a mouse wound infection model to assess the anti-P. aeruginosa efficacy of Au1 as described previously ([Liao et al., 2017b]). In brief, a circular wound with a diameter of 6 mm was created on the flank of mice, and approximately 5 × 10^8 CFU of P. aeruginosa PAO1 were dipped onto the wound by medical cotton swab to induce infection. Treatment is administered on the 1st day with auranofin or Au1 compound (50 μM, 20 μL) was applied to the wounds. The wound sizes and mice weights were recorded each day. On the 8th day, the infection sites were excised and part of the tissues was fixed in 4% paraformaldehyde and embedded in paraffin. Four-micrometer sections were cut, stained with Gram, H&E, and Masson’s trichrome stain. The remained tissues were homogenized and serially diluted for CFU quantification (Figure 6A).

[6] = tested on: Escherichia coli MG16552; assay: MIC by standard broth dilution; assay type: cell-based; conditions: Table S1
Procedure: as §1
(§2) The minimal inhibitory concentration (MIC) values of the gallium compounds were determined using a standard broth dilution method as described previously ([Wiegand et al., 2008]). In brief, the compounds were two-fold serially diluted to concentrations from 400 to 1.56 μM. Approximately 50 μL of the compound solution was added to a 96-well microtiter plate and mixed with 50 μL of bacteria culture in log phase (10^6 CFU/ml). The bacterial culture was further incubated at 37°C for 22–24 h. The OD600 values for each well was recorded on a microplate reader. The MICs value was defined as the lowest compound concentration that inhibited 95% of the bacterial growth.

[7] = tested on: Staphylococcus aureus Newman; assay: MIC by standard broth dilution; assay type: cell-based; conditions: Table S1
Procedure: as §1, §2

[8] = tested on: Pseudomonas aeruginosa strain PAO1; assay: MIC by standard broth dilution; assay type: cell-based
Procedure: as §1, §2

[9] = tested on: Burkholderia cepacia J2315; assay: MIC by standard broth dilution; assay type: cell-based; conditions: Table S1
Procedure: as §1, §2

[10] = tested on: P. aeruginosa; assay: Drug resistance development assay (serial passage); assay type: cell-based, Pseudomonas aeruginosa; conditions: over 14 days
Procedure: Development of resistance to the Au1 compound and the antibiotics (ciprofloxacin and tobramycin) were assessed as described by [Habets and Brockhurst (2012)]. The MIC assay was performed on the first day as described above. […] Thereafter, a new passage MIC measurement assay was prepared using diluted bacterial cells grown at 0.5-fold MIC suspension. This was repeated for 14 passages and the MIC values for Au1, ciprofloxacin and tobramycin were recorded for each passage.

[11] = Pseudomonas aeruginosa PAO1, Table S1, read-out: MIC

Row | Compound | IC50 [1] | synthesis of rhamnolipid [2] | impact on the bacterial growth [3] | bacterial fluorescence signal compared with the control group ([4]; 50 μM) | toxicity to the mice (mice weights) ([5]; 50 μM, 20 μL on wound, 8 days) | bacteria in wound tissue (Gram staining) ([5]; 8th day) | bacteria remained live in the infection sites ([5]; 8th day, CFU) | MIC [6] | MIC [7] | MIC ([8]; P. aeruginosa PAO1, lowest concentration inhibiting 95% of growth, 22–24 h, Table 1, listed as auranofin) | MIC ([8]; P. aeruginosa PAO1, lowest concentration inhibiting 95% of growth, 22–24 h, Table 1, read-out: MIC) | MIC [8, 11] | MIC [9] | increase of MIC values [10] | bacterial fluorescence signal compared with the control group ([4]; 5 μM)
1 | CC(=O)OC[C@H]1O[C@@H]([S-])[C@H](OC(C)=O)[C@@H](OC(C)=O)[C@@H]1OC(C)=O.CCP(CC)CC.[Au+] [Au9, auranofin] | 2800 ± 400 nM | significantly suppress | little impact | did not significantly affect | no significant toxicity | large number of bacteria | approximately 70% | >100 µM | <1.56 µM | higher than 400 μM | >400 µM | >100 µM | >100 µM |  | 
2 | NC[C@H]1O[C@H](O[C@H]2[C@H](O)[C@@H](O[C@H]3O[C@H](CO)[C@@H](O)[C@H](N)[C@H]3O)[C@H](N)C[C@@H]2N)[C@H](N)C[C@@H]1O [Tobramycin, tobramycin] |  |  |  |  |  |  |  | 50 µM (≈ 23.4 µg/mL) | 25 µM (≈ 11.7 µg/mL) |  |  | 12.5 µM (≈ 5.84 µg/mL) | > 100 µM | 30 times | 
3 | O=C(O)c1cn(C2CC2)c2cc(N3CCNCC3)c(F)cc2c1=O [Ciprofloxacin, ciprofloxacin] |  |  |  |  |  |  |  | < 1.56 µM | < 1.56 µM |  |  | < 1.56 µM | 25 µM (≈ 8.28 µg/mL) | 30 times | 
4 | polymyxin B |  |  |  |  |  |  |  | <1.56 µM | >100 µM |  |  | <1.56 µM | >100 µM |  | remarkably increased
5 | CC1(C)S[C@@H]2[C@H](NC(=O)C(C(=O)O)c3ccccc3)C(=O)N2[C@H]1C(=O)O (some centres unmarked) [Carbenicillin] |  |  |  |  |  |  |  | 25 µM (≈ 9.46 µg/mL) | 6.25 µM (≈ 2.37 µg/mL) |  |  | > 100 µM | > 100 µM |  | 
